Assay results published in US8629166B2, “5-cycloalkyl- or 5-heterocyclyl-nicotinamides” (Hoffmann-La Roche Inc., priority 2011, dated 2014).

Assays:
human CB2 receptor = target: T1, human CB2 receptor (Homo sapiens, UniProt P34972); assay: CB2 receptor affinity ([3H]-CP-55,940 displacement, HEK cell membranes); format: binding; details: displacement of [3H]-CP-55,940 at 10 μM
T1 construct: expressed in transfected cells; host or cells: human embryonic kidney (HEK) cells, Semliki Forest Virus system, membrane preparation
Description: (§1) CB1 and CB2 Receptor Affinity
The affinity of the compounds of the invention for cannabinoid CB2 receptors was determined using membrane preparations of human embryonic kidney (HEK) cells in which the human CB2 receptor is transiently transfected using a Semliki Forest Virus system in conjunction with [^3H]-CP-55,940 as radioligand. After incubation of freshly prepared cell membrane preparation with the [^3H]-ligand, with or without addition of compounds of the invention, separation of bound and free ligand was performed by filtration over glass fiber filters. Radioactivity on the filter was measured by scintillation counting.
(§2) The ability of the compounds to displace the radioligand [^3H]-CP-55,940 was measured at a concentration of 10 μM and values provided as [% inhibition @ 10 μM] both for the CB1 and CB2 receptor assay, The lower % inhibition is, the lower the likelihood of side effects based on CB1 or CB2 receptor inhibition is.

ABCA1 protein = assay: Detection of upregulation of ABCA1 protein in cells (ApoA-I binding, high content image analysis); format: cell-based; details: THP-1 macrophage cells; for EC50: ABCA1 protein increasing efficacy; for % increase of ABCA1 at 3 μM: compound at 3 μM, 24 hrs
Description: Detection of Upregulation of ABCA1 Protein in Cells
The ability of compounds of the invention to increase the level of ABCA1 protein is determined in replicate cultures of THP-1 macrophage cells in 96-well microplates. Cells are plated at an initial density of 100,000 cells/well in 100 μl medium and differentiated to adherent macrophages with the addition of PMA (100 nM) for 68 hrs in 10% fetal bovine serum, 3 μl/L of b-mercaptoethanol, RPMI-1640 medium. Then, cells are incubated with RPMI-1640 medium containing 1% FCS, 25 μg/ml acetylated LDL, for 24 hours at 37° C. Following incubation with acetylated LDL, cells are washed twice with 50 μl PBS and incubated with 100 μl of RPMI-1640 medium containing the compound of interest solubilized in DMSO for an additional 24 hrs. The final DMSO concentration in presence of cells is maintained at 0.5%. ApoA-I binding assay using High Content Image Analysis is initiated by replacing with fresh medium, RPMI without Phenol Red, 0.2% BSA containing AlexaFluor®647 labeled ApoA-I for 2 h/37° C./5% CO2. Then, cells are fixed with 4% Formaldehyde in PBS (15 min, RT). Following Nuclei are stained with Hoechst solution (3 μM PBS) and Cytoplasm with Cell Mask Blue (2 μg/ml PBS), 15 min, RT. Finally the stained cells are fixed with a second round of formaldehyde treatment. Fixed stained cells are washed and kept in PBS at 4° C. and can be read immediately until one month after preparation.
The Alexa Fluor 647-labeled Apolipoprotein A-I (20 nM) was prepared as follows: Human recombinant Apolipoprotein A-I (ApoA-I) was exchanged to a buffer of 0.02 M NaHCO3 at pH 8.2 on an NAP desalting column (GE Healthcare) and brought to a concentration to 40 μM (1.13 mg/ml) by adjustment with the same buffer. The ApoA-I was fluorescently labeled by incubation with Alexa Fluor carboxylic acid succimidyl ester (Alexa Fluor 647, Invitrogen A-20006) at a 2:1 molar ratio (Alexa to ApoA-I) for 1 h under shaking at RT. The remaining unconjugated label was removed by buffer exchange to 0.02M NaHCO3 at pH 8.2.
Imaging and data collection were performed on an OPERA confocal microplate imaging reader using a 20× water immersion objective and UV360 or 405 laser to identify the cell nuclei and a 635 laser to identify the fluorescent ApoA-I. Eight fields of view are captured per well. Image capture and analysis was performed with the Acapella software. Background fluorescence detected in control wells without ApoA-I was subtracted.
Using XLfit3 program (ID Business Solutions Ltd. UK), the model 205 for Dose Response One Site is used to calculate the EC50 values. […] Particularly, the compounds of the present invention have EC50 values in a range of 0.1 μM to 3 μm.

human CB1 receptor = target: T2, human CB1 receptor (Homo sapiens, UniProt P21554); assay: CB1 receptor affinity ([3H]-CP-55,940 displacement, HEK cell membranes); format: binding; details: displacement of [3H]-CP-55,940 at 10 μM
T2 construct: expressed in transfected cells; host or cells: human embryonic kidney (HEK) cells, Semliki Forest Virus system, membrane preparation
Description: as §1
The affinity of the compounds of the invention for cannabinoid receptors was determined using membrane preparations of human embryonic kidney (HEK) cells in which the human CB1 receptor is transiently transfected using a Semliki Forest Virus system in conjunction with [3H]-CP-55,940 as radioligand. After incubation of freshly prepared cell membrane preparation with the [^3H]-ligand, with or without addition of compounds of the invention, separation of bound and free ligand was performed by filtration over glass fiber filters. Radioactivity on the filter was measured by scintillation counting.
as §2

T2 sequence (P21554 whole entry): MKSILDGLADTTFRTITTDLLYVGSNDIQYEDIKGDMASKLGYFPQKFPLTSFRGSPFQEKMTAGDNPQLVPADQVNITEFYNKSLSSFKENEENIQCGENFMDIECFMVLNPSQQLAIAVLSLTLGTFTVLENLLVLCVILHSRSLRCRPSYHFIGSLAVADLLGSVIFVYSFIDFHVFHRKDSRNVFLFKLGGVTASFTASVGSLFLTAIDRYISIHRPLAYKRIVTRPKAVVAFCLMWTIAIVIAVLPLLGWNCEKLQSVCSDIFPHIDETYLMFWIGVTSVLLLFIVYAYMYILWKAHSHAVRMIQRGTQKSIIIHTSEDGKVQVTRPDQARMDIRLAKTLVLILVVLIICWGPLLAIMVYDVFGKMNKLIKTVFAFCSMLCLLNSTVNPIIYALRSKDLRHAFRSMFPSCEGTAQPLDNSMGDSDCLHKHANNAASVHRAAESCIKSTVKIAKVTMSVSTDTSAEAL
T1 sequence (P34972 whole entry): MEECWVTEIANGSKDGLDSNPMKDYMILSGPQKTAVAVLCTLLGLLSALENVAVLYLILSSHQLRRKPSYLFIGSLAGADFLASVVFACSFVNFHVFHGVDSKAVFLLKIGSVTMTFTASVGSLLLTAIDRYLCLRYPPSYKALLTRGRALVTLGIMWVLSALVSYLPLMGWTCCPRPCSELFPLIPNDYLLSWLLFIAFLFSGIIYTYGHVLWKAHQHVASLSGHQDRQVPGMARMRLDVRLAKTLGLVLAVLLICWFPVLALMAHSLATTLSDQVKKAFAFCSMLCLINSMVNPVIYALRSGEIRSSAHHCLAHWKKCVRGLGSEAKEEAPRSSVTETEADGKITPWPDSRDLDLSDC

SMILES	CB2 receptor affinity [% inhibition @ 10 μM] (human CB2 receptor)	EC50 (ABCA1 protein)	CB1 receptor affinity [% inhibition @ 10 μM] (human CB1 receptor)	% increase of ABCA1 at 3 μM (ABCA1 protein)
O=C(Nc1cccnc1)c1cnc(OCC(F)(F)F)c(C2=CCCCC2)c1 [Example 1, 5-cyclohex-1-enyl-N-pyridin-3-yl-6-(2,2,2-trifluoro-ethoxy)-nicotinamide]	5 % inhibition	0.51 µM	33 % inhibition	–
CCN(C(=O)c1cnc(OCC(F)(F)F)c(C2=CCCCC2)c1)C(C)C [Example 2, 5-cyclohex-1-enyl-N-ethyl-N-isopropyl-6-(2,2,2-trifluoro-ethoxy)-nicotinamide]	3 % inhibition	–	37 % inhibition	>45% @ 3 μM
O=C(NCc1nc(C(F)(F)F)no1)c1cnc(OCC(F)(F)F)c(C2=CCCCC2)c1 [Example 3, 5-cyclohex-1-enyl-6-(2,2,2-trifluoro-ethoxy)-N-(3-trifluoromethyl-[1,2,4]oxadiazol-5-ylmethyl)-nicotinamide]	−1 % inhibition	–	42 % inhibition	>45% @ 3 μM
O=C(NCc1nc(C(F)(F)F)no1)c1cnc(OCC(F)(F)F)c(C2CCCCC2)c1 [Example 4, 5-cyclohexyl-6-(2,2,2-trifluoro-ethoxy)-N-(3-trifluoromethyl-[1,2,4]oxadiazol-5-ylmethyl)-nicotinamide]	2 % inhibition	0.15 µM	31 % inhibition	–
O=C(NCc1nc(C(F)(F)F)no1)c1cnc(OCC(F)(F)F)c(C2=CCOCC2)c1 [Example 5, 5-(3,6-dihydro-2H-pyran-4-yl)-6-(2,2,2-trifluoro-ethoxy)-N-(3-trifluoromethyl-[1,2,4]oxadiazol-5-ylmethyl)-nicotinamide]	−2 % inhibition	2.92 µM	15 % inhibition	–
O=C(Nc1cccnc1)c1cnc(OCC(F)(F)F)c(C2CCCCC2)c1 [Example 6, 5-cyclohexyl-N-pyridin-3-yl-6-(2,2,2-trifluoro-ethoxy)-nicotinamide]	2 % inhibition	3.39 µM	17 % inhibition	–
O=C(Nc1cccnc1)c1cnc(OCC(F)(F)F)c(C2=CCCC2)c1 [Example 7, 5-cyclopent-1-enyl-N-pyridin-3-yl-6-(2,2,2-trifluoro-ethoxy)-nicotinamide]	3 % inhibition	–	11 % inhibition	>45% @ 3 μM
O=C(Nc1cccnc1)c1cnc(OCC(F)(F)F)c(C2CCCC2)c1 [Example 8, 5-cyclopentyl-N-pyridin-3-yl-6-(2,2,2-trifluoro-ethoxy)-nicotinamide]	13 % inhibition	–	49 % inhibition	>45% @ 3 μM
O=C(Nc1cccnn1)c1cnc(OCC(F)(F)F)c(C2CCCC2)c1 [Example 9, 5-cyclopentyl-N-pyridazin-3-yl-6-(2,2,2-trifluoro-ethoxy)-nicotinamide]	9 % inhibition	10 µM	7 % inhibition	–
O=C(Nc1ccccn1)c1cnc(OCC(F)(F)F)c(C2CCCC2)c1 [Example 10, 5-cyclopentyl-N-pyridin-2-yl-6-(2,2,2-trifluoro-ethoxy)-nicotinamide]	−9 % inhibition	1.01 µM	9 % inhibition	–
O=C(NCc1nc(C(F)(F)F)no1)c1cnc(OCC(F)(F)F)c(C2CCCC2)c1 [Example 11, 5-cyclopentyl-6-(2,2,2-trifluoro-ethoxy)-N-(3-trifluoromethyl-[1,2,4]oxadiazol-5-ylmethyl)-nicotinamide]	−3 % inhibition	–	29 % inhibition	>45% @ 3 μM
COc1cc(CNC(=O)c2cnc(OCC(F)(F)F)c(C3CCCC3)c2)on1 [Example 12, 5-cyclopentyl-N-(3-methoxy-isoxazol-5-ylmethyl)-6-(2,2,2-trifluoro-ethoxy)-nicotinamide]	12 % inhibition	–	29 % inhibition	>45% @ 3 μM
COc1cc(CNC(=O)c2cnc(OCC(F)(F)F)c(C3CCCCC3)c2)on1 [Example 13, 5-cyclohexyl-N-(3-methoxy-isoxazol-5-ylmethyl)-6-(2,2,2-trifluoro-ethoxy)-nicotinamide]	5 % inhibition	–	45 % inhibition	>45% @ 3 μM
Cc1noc(CNC(=O)c2cnc(OCC(F)(F)F)c(C3CCCCC3)c2)n1 [Example 14, 5-cyclohexyl-N-(3-methyl-[1,2,4]oxadiazol-5-ylmethyl)-6-(2,2,2-trifluoro-ethoxy)-nicotinamide]	3 % inhibition	–	34 % inhibition	>45% @ 3 μM
O=C(NCc1ccn(CC2CC2)n1)c1cnc(OCC(F)(F)F)c(C2CCCCC2)c1 [Example 15, 5-cyclohexyl-N-(1-cyclopropylmethyl-1H-pyrazol-3-ylmethyl)-6-(2,2,2-trifluoro-ethoxy)-nicotinamide]	14 % inhibition	–	49 % inhibition	>45% @ 3 μM
O=C(NCc1csc(C2CC2)n1)c1cnc(OCC(F)(F)F)c(C2CCCCC2)c1 [Example 16, 5-cyclohexyl-N-(2-cyclopropyl-thiazol-4-ylmethyl)-6-(2,2,2-trifluoro-ethoxy)-nicotinamide]	5 % inhibition	–	25 % inhibition	>45% @ 3 μM
O=C(NCc1ccn(CC2CC2)n1)c1cnc(OCC(F)(F)F)c(C2CCCC2)c1 [Example 17, 5-cyclopentyl-N-(1-cyclopropylmethyl-1H-pyrazol-3-ylmethyl)-6-(2,2,2-trifluoro-ethoxy)-nicotinamide]	9 % inhibition	–	25 % inhibition	>45% @ 3 μM
